Results reported in US11534457B2, “Use of dextran sulfate” (priority 2017, dated 2022).

Test system: severe traumatic brain injury (sTBI)
Experiment: sTBI in rats, brain gene expression arrays and pathway analysis (Example 9)
Assay type: in vivo, Male Wistar rats
Parameters: key to z score, canonical pathway Dendritic Cell Maturation / z score, canonical pathway Adrenomedullin Signaling pathway / z score, canonical pathway Endothelin-1 Signaling / effect on canonical pathway Adrenomedullin Signaling pathway / effect on canonical pathway Endothelin-1 Signaling / effect on canonical pathway Dendritic Cell Maturation / Ingenuity canonical pathway Adrenomedullin signaling pathway, z score / Ingenuity canonical pathway FLT3 Signaling in Hematopoietic Progenitor Cells, z score / Ingenuity canonical pathway Opioid Signaling Pathway, z score / Ingenuity canonical pathway VDR/RXR Activation, z score / Ingenuity canonical pathway Neuropathic Pain Signaling In Dorsal Horn Neurons, z score / Ingenuity canonical pathway STAT3 Pathway, z score / Ingenuity canonical pathway IL-1 Signaling, z score / Ingenuity canonical pathway IL-6 Signaling, z score / Ingenuity canonical pathway NF-κB Signaling, z score / Ingenuity canonical pathway Role of NFAT in Cardiac Hypertrophy, z score / Ingenuity canonical pathway PPARα/RXRα Activation, z score: *: ambiguous effect
Procedure: The experimental protocol used in this study was approved by the Ethical Committee of the Catholic University of Rome, according to international standards and guidelines for animal care. Male Wistar rats of 300-350 g body weight were fed with standard laboratory diet and water ad libitum in a controlled environment. As the anesthetic mixture, the animals received 35 mg/kg b.w. ketamine and 0.25 mg/kg body weight midazolam by i.p. injection. Severe traumatic brain injury (sTBI) was induced by dropping a 450 g weight from 2 m height on to the rat head that had been protected by a metal disk previously fixed on the skull, according to the “weight drop” impact acceleration model (Marmarou et al., A new model of diffuse brain injury in rats. Part I: Pathophysiology and biomechanics. J Neurosurg. 1994; 80: 291-300). […] At the end of each period of treatment, rats were anesthetized again and then immediately sacrificed.
LMW-DS (Tikomed AB) was provided at a stock concentration of 20 mg/ml and was kept in a temperature-monitored refrigerator at 4° C. LMW-DS aliquots were diluted to the appropriate dosing concentration in sterile saline prior to delivery of a single subcutaneous injection.
Three doses of LMW-DS were administered subcutaneously 30 minutes post-TBI. The animals were sacrificed at 2 days post-TBI. The animals were divided into the following subgroups:
Three doses of LMW-DS were administered subcutaneously 30 minutes post-TBI. The animals were sacrificed at 7 days post-TBI. The animals were divided into the following subgroups:
An in vivo craniectomy was performed on all animals during anesthesia. After carefully removing the rat's skull, the brain was exposed and removed with a surgical spatula and quickly dropped in RNALater and preserved at 4° C. for further processing.
RNA extraction and array processing was carried out by SourceBioscience. The arrays used were the Agilent Rat expression arrays.
Statistical analysis was carried out using the Metaboanalyst software package. Gene expression changes of 10% with a p<0.05 were regarded as significant.
Pathway analysis of the differentially regulated genes was carried out using the Ingenuity pathway analysis package. The analysis was performed with special reference to pathways and molecular processes and diseases associated with neurodegenerative disease, including dementia, Alzheimer's disease, ALS, TBI and stroke, and with scarring and fibrosis, including glaucoma and normal pressure hydrocephalus (NPH) after subarachnoid haemorrhage.

[1] = TBI + 5 mg/kg LMW-DS, after 7 days, TBI: Inhibited
[2] = TBI + 15 mg/kg LMW-DS, 2 days after TBI
[3] = TBI + 15 mg/kg LMW-DS, 7 days after TBI
[4] = TBI + 15 mg/kg LMW-DS, 7 days after TBI, relative to control
[5] = TBI + 15 mg/kg LMW-DS, after 7 days, TBI: Activated
[6] = TBI + 15 mg/kg LMW-DS, after 7 days, TBI: Inhibited
[7] = TBI + 15 mg/kg repeat dose LMW-DS, after 7 days, TBI: Activated
[8] = TBI + 15 mg/kg repeat dose LMW-DS, after 7 days, TBI: Inhibited

low molecular weight dextran sulfate [LMW-DS]
Inhibited: Diseases or functions annotation: Proliferation of connective tissue cells [1] | Diseases or functions annotation: Proliferation of epithelial cells [1] | Diseases or functions annotation: Tumorigenesis of tissue [1] | Diseases or functions annotation: Apoptosis [2] | Diseases or functions annotation: Behavior [2] | Diseases or functions annotation: Cell death [2] | Diseases or functions annotation: Necrosis [2] | Diseases or functions annotation: Quantity of blood cells [2] | Diseases or functions annotation: Quantity of cells [2] | Diseases or functions annotation: Quantity of lymphocytes [2] | Diseases or functions annotation: Apoptosis [5] | Diseases or functions annotation: Cell death [5] | Diseases or functions annotation: Development of malignant tumor [5] | Diseases or functions annotation: Frequency of tumor [5] | Diseases or functions annotation: Incidence of tumor [5] | Diseases or functions annotation: Abdominal neoplasm [6] | Diseases or functions annotation: Digestive organ tumor [7] | Diseases or functions annotation: Gastrointestinal tumor [7] | Diseases or functions annotation: Hematologic cancer [7] | Diseases or functions annotation: Hematopoietic neoplasm [7] | Diseases or functions annotation: Abdominal cancer [8] | Diseases or functions annotation: Abdominal neoplasm [8] | Diseases or functions annotation: Adenocarcinoma [8] | Diseases or functions annotation: Carcinoma [8] | Diseases or functions annotation: Concentration of lipid [8] | Diseases or functions annotation: Dendritic growth/branching [8] | Diseases or functions annotation: Development of connective tissue cells [8]
0.178: z score: Cell death of tumor cell lines [3]
0.766: z score: Development of connective tissue cells [3]
Activated: Diseases or functions annotation: Organization of cytoskeleton [1] | Diseases or functions annotation: Pelvic tumor [1] | Diseases or functions annotation: Quantity of cells [1] | Diseases or functions annotation: Quantity of connective tissue [1] | Diseases or functions annotation: Secretion of molecule [1] | Diseases or functions annotation: Size of body [1] | Diseases or functions annotation: Solid tumor [1] | Diseases or functions annotation: Synthesis of lipid [1] | Diseases or functions annotation: Transcription [1] | Diseases or functions annotation: Transcription of RNA [1] | Diseases or functions annotation: Transport of molecule [1] | Diseases or functions annotation: Vasculogenesis [1] | Diseases or functions annotation: Apoptosis of tumor cell lines [2] | Ingenuity canonical pathway: Endothelin-1 Signaling [3] | Ingenuity canonical pathway: Phospholipase C Signaling [3] | Ingenuity canonical pathway: cAMP-mediated signaling [3] | Diseases or functions annotation: Apoptosis of tumor cell lines [5] | Diseases or functions annotation: Cell death of tumor cell lines [5] | Diseases or functions annotation: Extracranial solid tumor [5] | Diseases or functions annotation: Necrosis [5] | Diseases or functions annotation: Cancer [6] | Diseases or functions annotation: Carcinoma [6] | Diseases or functions annotation: Cell movement of myeloid cells [6] | Diseases or functions annotation: Development of carcinoma [6] | Diseases or functions annotation: Development of connective tissue cells [6] | Diseases or functions annotation: Differentiation of bone cells [6] | Diseases or functions annotation: Epithelial neoplasm [6] | Diseases or functions annotation: Genitourinary tumor [6] | Diseases or functions annotation: Leukocyte migration [6] | Diseases or functions annotation: Non-melanoma solid tumor [6] | Diseases or functions annotation: Quantity of cells [6] | Diseases or functions annotation: Solid tumor [6] | Diseases or functions annotation: Transcription [6] | Diseases or functions annotation: Transcription of RNA [6] | Diseases or functions annotation: Tumorigenesis of epithelial neoplasm [6] | Diseases or functions annotation: Tumorigenesis of tissue [6] | Diseases or functions annotation: Extracranial solid tumor [7] | Diseases or functions annotation: Obesity [7] | Diseases or functions annotation: Seizure disorder [7] | Diseases or functions annotation: Skin lesion [7] | Diseases or functions annotation: Branching of cells [8] | Diseases or functions annotation: Cell movement [8] | Diseases or functions annotation: Cell-cell contact [8] | Diseases or functions annotation: Concentration of hormone [8] | Diseases or functions annotation: Development of gap junctions [8] | Diseases or functions annotation: Development of neurons [8] | Diseases or functions annotation: Developmental process of synapse [8]
0.775: z score: Epithelial neoplasm [3]
0.903: z score: Differentiation of bone cells [3]
−0.774: z score: Development of malignant tumor [3]
−0.256: z score: Apoptosis [3]
1.121: z score: Non-melanoma solid tumor [3]
0.991: z score: Quantity of cells [3]
2: Ingenuity canonical pathway Phospholipase C Signaling, z score [4]
1.474: z score: Extracranial solid tumor [3]
−0.272: z score: Abdominal neoplasm [3]
1.197: z score: Cell movement of myeloid cells [3]
0.517: z score: Transcription of RNA [3]
*: Ingenuity canonical pathway Adrenomedullin signaling pathway, z score [4]
0.992: z score: Solid tumor [3]
0.224: z score: Quantity of Ca^2+ [3]
0.152: z score: Tumorigenesis of epithelial neoplasm [3]
1.746: z score: Genitourinary tumor [3]
0.783: z score: Apoptosis of tumor cell lines [3]
−0.865: z score: Incidence of tumor [3]
0.918: z score: Tumorigenesis of tissue [3]
1.067: z score: Carcinoma [3]
2.365: z score: Leukocyte migration [3]
1: Ingenuity canonical pathway Endothelin-1 Signaling, z score [4] | Ingenuity canonical pathway cAMP-mediated signaling, z score [4]
0.747: z score: Transcription [3]
0.213: z score: Necrosis [3]
−1.519: z score: Frequency of tumor [3]
1.705: z score: Cancer [3]
−1.269: z score: Cell death [3]
